Assay results from patent US20210338779A1, “THERAPEUTIC USE OF GLUCAGON AND COMBINATION INCLUDING THE SAME” (HANMI PHARM. CO., LTD, priority 2018, published 2021).
Like-named read-outs stand apart in the source and are kept apart here. Non-standard residues stand in square brackets, D forms with d. No end group written: not given here. Aib = CC(C)(N)C(=O)O

Columns and labels:
[1] = test system: Mice with high-fat-diet-induced obesity; test: Experimental Example 1: body weight, fat, HOMA-IR and blood glucose in mice with high-fat-diet-induced obesity; type: in vivo, Mouse; conditions: 28 days; long-acting glucagon derivative 1.2 nmol/kg once every 2 days; SAXENDA 50 nmol/kg twice a day; Sitagliptin 49.2 mg/kg once a day
Procedure: (§1) Mice with high-fat-diet-induced obesity, which have been widely used as obesity animal models, were used for this experiment. The body weights of the mice were in the range of about 50 g to 55 g. During this experiment, mice were housed 7 mice per each group and were given ad libitum access to water. Lights were turned off between 6 P.M. and 6 A. M.
(§2) Test groups fed with high-fat diet include: Group 1: administered with an excipient not including long-acting glucagon (5 mL/kg, injection once every 2 days)-control (Vehicle), Group 2: administered with a GLP-1 analog obesity drug (SAXENDA®, 50 nmol/kg, injection twice a day), Group 3: administered with the long-acting glucagon derivative (1.2 nmol/kg, injection once every 2 days), and Group 4: administered with a DPP-4 inhibitor (Sitagliptin, 49.2 mg/kg, injection once a day).
(§3) The experiment was terminated on the 28th day, and changes in body weight of the mice in each group were measured at 2-day intervals during the progress of the experiment, and changes in blood glucose level were measured before administration and at the 1st, 4th, 7th, 10th, 13th, 16th, 19th, 22nd, 25th, and 28th days after administration. Upon termination of the experiment, the weight of fat and HOMA-IR were measured.
(§4) Statistical analysis was performed by comparing the excipient group (control) with the test groups by 1-way ANOVA.

[2] = test system: Mice with high-fat-diet-induced obesity; test: Experimental Example 2: co-administration of long-acting glucagon derivative and oral diabetes drug in mice with high-fat-diet-induced obesity; type: in vivo, Mouse; conditions: 28 days; long-acting glucagon derivative 1.2 nmol/kg once every 2 days; Sitagliptin 49.2 mg/kg, Empagliflozin 12.3 mg/kg once a day; SAXENDA 50 nmol/kg twice a day
Procedure: as §1
as §2, with “days),” for “days), and”, “day), Group 5: administered with an SGLT-2 inhibitor (Empagliflozin, 12.3 mg/kg, injection once a day), Group 6: co-administered with Sitagliptin (49.2 mg/kg, injection once a day) and the long-acting glucagon derivative (1.2 nmol/kg, injection once every 2 days), and Group 7: Empagliflozin (12.3 mg/kg, injection once a day) and the long-acting glucagon derivative (1.2 nmol/kg, injection once every 2 days). The long-acting glucagon derivative used in this experiment was the long-acting derivative according to Example 5.” for “day).”
as §3, §4

[3] = cited from earlier work
[4] = test system: Mice with high-fat-diet-induced obesity; test: Experimental Example 3: long-acting glucagon derivative and GLP-1 analogs, alone and co-administered, in mice with high-fat-diet-induced obesity; type: in vivo, Mouse; conditions: 28 days; glucagon long-acting derivative 2.0 nmol/kg once every 2 days; SAXENDA 50 nmol/kg twice a day; OZEMPIC 20.5 nmol/kg, TRULICITY 2.7 nmol/kg once every 2 days
Procedure: Mice with high-fat-diet-induced obesity, which have been widely used as obesity animal models, were used for this experiment. The body weights of the mice were in the range of about 50 g to 55 g. During this experiment, mice were housed 7 mice per each group and were given ad libitum access to water. Light was turned off between 6 P.M. and 6 A.M. […]
The experiment was terminated on the 28th day, and changes in body weight of the mice in each group were measured at 2-day intervals during the progress of the experiment. Upon termination of the experiment, blood lipid levels, weights of fat, and blood glucose levels were measured. […]

human glucagon receptor = human glucagon receptor (human, UniProt P47871 26-477); test: cell-based or functional assay
Chain of human glucagon receptor (P47871 26-477): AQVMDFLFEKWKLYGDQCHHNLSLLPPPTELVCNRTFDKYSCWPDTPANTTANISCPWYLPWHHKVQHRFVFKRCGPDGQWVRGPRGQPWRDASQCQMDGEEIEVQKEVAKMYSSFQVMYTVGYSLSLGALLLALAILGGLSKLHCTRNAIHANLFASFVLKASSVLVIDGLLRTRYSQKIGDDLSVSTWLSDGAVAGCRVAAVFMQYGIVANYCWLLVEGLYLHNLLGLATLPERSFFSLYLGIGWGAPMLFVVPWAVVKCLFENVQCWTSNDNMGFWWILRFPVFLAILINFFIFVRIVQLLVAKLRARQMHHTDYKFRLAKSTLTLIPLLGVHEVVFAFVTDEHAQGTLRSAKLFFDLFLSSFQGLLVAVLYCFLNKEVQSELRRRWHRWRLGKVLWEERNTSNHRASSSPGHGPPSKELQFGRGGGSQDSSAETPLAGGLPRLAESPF

With `N[C@@H](CC(=O)N1CCn2c(nnc2C(F)(F)F)C1)Cc1cc(F)c(F)cc1F` [Sitagliptin] the “change in body weight compared to body weight before administration” value [1] was −0.1% and the “weight loss (change in body weight)” value [2] was −0.1%.

In the case of `CCCCCCCCCCC[C@@H](C[C@@H]1OC(=O)[C@H]1CCCCCC)OC(=O)[C@H](CC(C)C)NC=O` [Orlistat], the weight loss ([3]; when taken for one year) is given as “about 4 kg”.

For Contrave, the side-effects ([3]; in vivo) is listed as “cardiovascular side-effects”.

In the case of `Cc1c(C(=O)NN2CCCCC2)nn(-c2ccc(Cl)cc2Cl)c1-c1ccc(Cl)cc1` [Rimonabant], the side-effects ([3]; reported) is listed as “side-effect of central nervous system disorder”.

For “SAXENDA®: GLP-1 analog obesity drug (HAEGTFTSDVSSYLEGQAAKEFIAWLVRGRG; chains of the INN, looked up)”, the “change in body weight compared to body weight before administration” value [1] was −16.3%, the “weight loss (change in body weight)” value [2] was −16.3% and the “weight loss compared to the body weight before administration” value [4] was −18.10%.

In the case of `CC(C)CC(N(C)C)C1(c2ccc(Cl)cc2)CCC1` (stereo not drawn) [Sibutramine], the side-effects ([3]; reported) is listed as “cardiovascular side-effects”.

In the case of `OC[C@H]1O[C@@H](c2ccc(Cl)c(Cc3ccc(O[C@H]4CCOC4)cc3)c2)[C@H](O)[C@@H](O)[C@@H]1O` [Empagliflozin], the “weight loss (change in body weight)” value [2] is reported as −10.4%.

For TRULICITY®: long-acting GLP-1 analog, the “weight loss compared to the body weight before administration” value [4] was −3.81%.

In the case of YXQGTFTSDYSKYLDSRRAQDFVQWLMNTC (X at position 2 = aminoisobutyric acid (Aib)) [glucagon derivative of SEQ ID NO: 44], the “in vitro activity (%, relative to SEQ ID NO: 1); cAMP assay, from EC50” value (human glucagon receptor) is reported as 75.4%.

With Y[Aib]QGTFTSDYSKYLDSCDAQDFVQWLINT [glucagon derivative of SEQ ID NO: 8] the “in vitro activity (%, relative to SEQ ID NO: 1); cAMP assay, from EC50” value (human glucagon receptor) was less than 0.1%.

In the case of YSQGTFTSDYSKYLDSCEADDFVQWLMNT [glucagon derivative of SEQ ID NO: 7], the “in vitro activity (%, relative to SEQ ID NO: 1); cAMP assay, from EC50” value (human glucagon receptor) is reported as less than 0.1%.

With HSQGTFTSDYSKYLDSCEADDFVQWLMNT [glucagon derivative of SEQ ID NO: 6] the “in vitro activity (%, relative to SEQ ID NO: 1); cAMP assay, from EC50” value (human glucagon receptor) was less than 0.1%.

For HSQGTFTSDYSKYLDSCEAQDFVQWLMNT [glucagon derivative of SEQ ID NO: 5], the “in vitro activity (%, relative to SEQ ID NO: 1); cAMP assay, from EC50” value (human glucagon receptor) was 0.3%.

In the case of Y[Aib]QGTFTSDCSKYLDSRRAQDFVQWLMNT [glucagon derivative of SEQ ID NO: 43], the “in vitro activity (%, relative to SEQ ID NO: 1); cAMP assay, from EC50” value (human glucagon receptor) is reported as 1.6%.

With HSQGTFTSDYSKYLDSCDAQDFVQWLMNT [glucagon derivative of SEQ ID NO: 4] the “in vitro activity (%, relative to SEQ ID NO: 1); cAMP assay, from EC50” value (human glucagon receptor) was less than 0.1%.
